Laboratory results as given in patent US7138411B2, “Substituted benzopyran derivatives for the treatment of inflammation” (G.D. Searle & Co., priority 1997, dated 2006).
pIC50: −log10 of the molar value.

What was measured:
Analgesia (Table I) = type: in vivo; parameters: inhibition in vivo: dose or concentration left out as unconfirmed; conditions: read-out: ANALGESIA % Inhibition; for inhibition in vivo at 10 mg/kg: @ 10 mpk (values marked *)
carrageenan foot edema = test: Rat carrageenan foot pad edema test; type: in vivo, Male Sprague-Dawley rats; parameters: inhibition in vivo: dose or concentration left out as unconfirmed; conditions: po, 3 h, dosed orally, foot volume three hours after carrageenan, read-out: RAT PAW EDEMA % Inhibition; for inhibition in vivo at 10 mg/kg: @ 10 mpk (values marked *)
Description: Rat Carrageenan Foot Pad Edema Test
Male Sprague-Dawley rats were selected in each group so that the average body weight was as close as possible. Rats were fasted with free access to water for over sixteen hours prior to the test. The rats were dosed orally (1 mL) with compounds suspended in vehicle containing 0.5% methylcellulose and 0.025% surfactant, or with vehicle alone. One hour later a subplantar injection of 0.1 mL of 1% solution of carrageenan/sterile 0.9% saline was administered and the volume of the injected foot was measured with a displacement plethysmometer connected to a pressure transducer with a digital indicator. Three hours after the injection of the carrageenan, the volume of the foot was again measured. The average foot swelling in a group of drug-treated animals was compared with that of a group of placebo-treated animals and the percentage inhibition of edema was determined (Otterness and Bliven, Laboratory Models for Testing NSAIDs, in Non-steroidal Anti-Inflammatory Drugs, (J. Lombardino, ed. 1985)).

COX-2 [1] = biological target: T1, COX-2 (UniProt P35354); test: Fast assay for COX-2 activity (PGE2 ELISA); type: biochemical, human or murine; conditions: fast assay: 10 min pre-incubation at 25° C., reaction stopped after two minutes, pH 7.5
T1 sequence (P35354 1-604): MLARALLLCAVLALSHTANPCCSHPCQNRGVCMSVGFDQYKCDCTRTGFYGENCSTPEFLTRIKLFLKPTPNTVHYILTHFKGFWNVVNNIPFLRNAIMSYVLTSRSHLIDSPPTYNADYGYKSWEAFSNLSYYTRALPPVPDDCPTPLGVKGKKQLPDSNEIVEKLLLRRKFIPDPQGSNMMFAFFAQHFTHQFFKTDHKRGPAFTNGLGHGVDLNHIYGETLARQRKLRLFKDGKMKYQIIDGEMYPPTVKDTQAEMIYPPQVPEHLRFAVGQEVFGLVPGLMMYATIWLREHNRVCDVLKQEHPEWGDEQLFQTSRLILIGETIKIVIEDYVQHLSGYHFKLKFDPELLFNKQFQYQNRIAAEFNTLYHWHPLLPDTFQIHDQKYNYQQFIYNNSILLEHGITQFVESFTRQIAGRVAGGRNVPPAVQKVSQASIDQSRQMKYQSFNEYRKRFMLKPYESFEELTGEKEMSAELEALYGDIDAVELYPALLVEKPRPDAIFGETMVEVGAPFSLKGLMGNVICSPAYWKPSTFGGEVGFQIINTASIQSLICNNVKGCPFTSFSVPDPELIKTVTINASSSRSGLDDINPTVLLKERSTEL
Description: The homogenate was centrifuged at 10,000×G for 30 minutes, and the resultant supernatant was stored at −80° C. before being assayed for COX activity.
Fast Assay for COX-1 and COX-2 Activity
COX activity was assayed as PGE2 formed/μg protein/time using an ELISA to detect the prostaglandin released. CHAPS-solubilized insect cell membranes containing the appropriate COX enzyme were incubated in a potassium phosphate buffer (0.05 M Potassium phosphate, pH 7.5, 2 μM phenol,1 μM heme, 300 μM epinephrine) with the addition of 20 μl of 100 μM arachidonic acid (10 μM). […] The PGE2 formed was measured by standard ELISA technology (Cayman Chemical).

COX-2 [2] = biological target: T1, COX-2; test: Assay for COX-2 activity (PGE2 ELISA); conditions: read-out: COX-2 IC50; 10–20 minutes pre-incubation, reaction stopped after ten minutes, pH 8.0
Description: Recombinant baculoviruses were isolated by transfecting 4 μg of baculovirus transfer vector DNA into SF9 insect cells (2×10^8) along with 200 ng of linearized baculovirus plasmid DNA by the calcium phosphate method. […] Recombinant viruses were purified by three rounds of plaque purification and high titer (10^7–10^8 pfu/mL) stocks of virus were prepared. For large scale production, SF9 insect cells were infected in 10 liter fermentors (0.5×10^6/mL) with the recombinant baculovirus stock such that the multiplicity of infection was 0.1. […] The homogenate was centrifuged at 10,000×G for 30 minutes, and the resultant supernatant was stored at −80° C. before being assayed for COX activity.
Assay for COX-1 and COX-2 Activity
COX activity was assayed as PGE2 formed/μg protein/time using an ELISA to detect the prostaglandin released. CHAPS-solubilized insect cell membranes containing the appropriate COX enzyme were incubated in a potassium phosphate buffer (50 mM, pH 8.0) containing epinephrine, phenol, and heme with the addition of arachidonic acid (10 μM). […] The PGE2 formed was measured by standard ELISA technology (Cayman Chemical).

COX-1 = COX-1 (UniProt P23219); test: Assay for COX-1 activity (PGE2 ELISA); conditions: read-out: COX-1 IC50; 10–20 minutes pre-incubation, reaction stopped after ten minutes, pH 8.0

Compound `CN1c2ccc(Cl)cc2C=C(C(=O)O)C1C(F)(F)F` (stereo not drawn) [Example 165, 6-Chloro-1,2-dihydro-1-methyl-2-(trifluoromethyl)-3-quinolinecarboxylic acid] has an inhibition in vivo at 10 mg/kg (Analgesia (Table I)) of 33%, a melting point of 208 to 209 °C and an inhibition in vivo at 10 mg/kg (carrageenan foot edema) of 30%.
`CC(C)(C)c1ccc2c(c1)OC(C(F)(F)F)C(C(=O)O)=C2` (stereo not drawn) [Example 12, 7-(1,1-Dimethylethyl)-2-trifluoromethyl-2H-1-benzopyran-3-carboxylic acid] showed a pIC50 (COX-2 [1]) of 5.15, an inhibition in vivo (Analgesia (Table I)) of 37% and an inhibition in vivo (carrageenan foot edema) of 30%.
In the case of `O=C(O)C1=Cc2cc(Cl)c(Oc3ccccc3)cc2OC1C(F)(F)F` (stereo not drawn) [Example 177, 6-Chloro-7-phenoxy-2-(trifluoromethyl)-2H-1-benzopyran-3-carboxylic acid], the pIC50 (COX-2 [1]) was greater than 7.00, the pIC50 (COX-2 [2]) was greater than 7.00 and the inhibition in vivo at 10 mg/kg (Analgesia (Table I)) was 61%. It also gave a pIC50 (COX-1) of 6.52, a melting point of 220.2 to 221.8 °C and an inhibition in vivo at 10 mg/kg (carrageenan foot edema) of 59%.
`O=C(O)C1=Cc2cc(Cl)cc(Cl)c2OC1C(F)(F)F` (stereo not drawn) [Example 32, 6,8-Dichloro-2-trifluoromethyl-2H-1-benzopyran-3-carboxylic acid] gave an inhibition in vivo at 10 mg/kg (Analgesia (Table I)) of 73% and an inhibition in vivo at 10 mg/kg (carrageenan foot edema) of 59%.
Compound `O=C(O)C1=Cc2cc(I)ccc2OC1C(F)(F)F` (stereo not drawn) [Example 24, 6-Iodo-2-trifluoromethyl-2H-1-benzopyran-3-carboxylic acid] has an inhibition in vivo (Analgesia (Table I)) of 25%, a melting point of 168 to 170 °C and an inhibition in vivo (carrageenan foot edema) of 29%.
For `O=C(O)C1=Cc2cc(Cl)c(Cl)c(Cl)c2OC1C(F)(F)F` (stereo not drawn) [Example 84, 6,7,8-Trichloro-2-(trifluoromethyl)-2H-1-benzopyran-3-carboxylic acid], the pIC50 (COX-2 [2]) was greater than 7.00, the inhibition in vivo (Analgesia (Table I)) was 24% and the pIC50 (COX-1) was 5.55. It also gave an inhibition in vivo (carrageenan foot edema) of 44%.
`O=C(O)C1=Cc2cc(Cl)cc(F)c2OC1C(F)(F)F` (stereo not drawn) [Example 46, 6-Chloro-8-fluoro-2-trifluoromethyl-2H-1-benzopyran-3-carboxylic acid] showed a pIC50 (COX-2 [1]) of 6.70, a pIC50 (COX-2 [2]) of 4.13 and an inhibition in vivo (Analgesia (Table I)) of 67%. For the same compound, the pIC50 (COX-1) was 4.37, the melting point was 190.8 to 193 °C and the inhibition in vivo (carrageenan foot edema) was 59%.
With `Cc1cc(Cl)cc2c1OC(C(F)(F)F)C(C(=O)O)=C2` (stereo not drawn) [Example 38, 6-Chloro-8-methyl-2-trifluoromethyl-2H-1-benzopyran-3-carboxylic acid] the inhibition in vivo (Analgesia (Table I)) was 55%, the pIC50 (COX-1) was 4.24 and the inhibition in vivo (carrageenan foot edema) was 47%.
Compound `Cc1cc(Cl)c2c(c1)C=C(C(=O)O)C(C(F)(F)F)O2` (stereo not drawn) [Example 39, 8-Chloro-6-methyl-2-trifluoromethyl-2H-1-benzopyran-3-carboxylic acid] has an inhibition in vivo (Analgesia (Table I)) of 8%, a pIC50 (COX-1) of less than 4.00 and an inhibition in vivo (carrageenan foot edema) of 18%.
`O=C(O)C1=Cc2cc(Cl)ccc2SC1C(F)(F)F` (stereo not drawn) [Example 65, 6-Chloro-2-trifluoromethyl-2H-1-benzothiopyran-3-carboxylic acid] gave a pIC50 (COX-2 [1]) greater than 7.00, an inhibition in vivo (Analgesia (Table I)) of 32% and a melting point of 188.8 to 198.7 °C. It also gave an inhibition in vivo (carrageenan foot edema) of 43%.
With `O=C(O)C1=Cc2cc(Cl)ccc2NC1C(F)(F)F` (stereo not drawn) [Example 157, 6-Chloro-1,2-dihydro-2-(trifluoromethyl)-3-quinolinecarboxylic acid] the inhibition in vivo at 10 mg/kg (Analgesia (Table I)) was 36% and the inhibition in vivo at 10 mg/kg (carrageenan foot edema) was 44%.
In the case of `O=C(O)C1=Cc2c(cc(Cl)c(Cl)c2Cl)OC1C(F)(F)F` (stereo not drawn) [Example 83, 5,6,7-Trichloro-2-(trifluoromethyl)-2H-1-benzopyran-3-carboxylic acid], the pIC50 (COX-2 [1]) was greater than 7.00, the pIC50 (COX-2 [2]) was greater than 7.00 and the inhibition in vivo (Analgesia (Table I)) was 65%. It also gave a pIC50 (COX-1) of 5.85 and an inhibition in vivo (carrageenan foot edema) of 56%.
In the case of `C#Cc1cc(Cl)cc2c1OC(C(F)(F)F)C(C(=O)O)=C2` (stereo not drawn) [Example 115, 6-Chloro-8-ethynyl-2-(trifluoromethyl)-2H-1-benzopyran-3-carboxylic acid], the pIC50 (COX-2 [1]) was greater than 7.00, the pIC50 (COX-2 [2]) was greater than 7.00 and the inhibition in vivo (Analgesia (Table I)) was 62%. The pIC50 (COX-1) was greater than 7.00, the melting point was 186.2 to 189 °C and the inhibition in vivo (carrageenan foot edema) was 52%.
`O=C(O)C1=Cc2cc(Br)ccc2NC1C(F)(F)F` (stereo not drawn) [Example 161, 6-Bromo-1,2-dihydro-2-(trifluoromethyl)-3-quinolinecarboxylic acid] showed an inhibition in vivo (Analgesia (Table I)) of 56% and an inhibition in vivo (carrageenan foot edema) of 53%.
With `O=C(O)C1=Cc2cc(Oc3ccc(C(F)(F)F)cc3)cc(Cl)c2OC1C(F)(F)F` (stereo not drawn) [Example 105] the pIC50 (COX-2 [1]) was 6.52, the pIC50 (COX-2 [2]) was 6.70 and the inhibition in vivo (Analgesia (Table I)) was 69%. It also gave a pIC50 (COX-1) of 7.00, a melting point of 223.7 to 226 °C and an inhibition in vivo (carrageenan foot edema) of 75%.
Compound `O=C(O)C1=Cc2cc(Cl)cc(Cl)c2NC1C(F)(F)F` (stereo not drawn) [Example 158, 6,8-Dichloro-1,2-dihydro-2-(trifluoromethyl)-3-quinolinecarboxylic acid] has an inhibition in vivo at 10 mg/kg (Analgesia (Table I)) of 55% and an inhibition in vivo at 10 mg/kg (carrageenan foot edema) of 45%.
With `O=C(O)C1=Cc2cc(Cl)c(Cl)cc2OC1C(F)(F)F` (stereo not drawn) [Example 31, 6,7-Dichloro-2-trifluoromethyl-2H-1-benzopyran-3-carboxylic acid] the pIC50 (COX-2 [1]) was greater than 7.00, the inhibition in vivo at 10 mg/kg (Analgesia (Table I)) was 37% and the inhibition in vivo at 10 mg/kg (carrageenan foot edema) was 39%.
For `O=C(O)C1=Cc2cc(OC(F)(F)F)ccc2OC1C(F)(F)F` (stereo not drawn) [Example 16, 6-Trifluoromethoxy-2-trifluoromethyl-2H-1-benzopyran-3-carboxylic acid], the inhibition in vivo (Analgesia (Table I)) was 34%, the pIC50 (COX-1) was 4.29 and the inhibition in vivo (carrageenan foot edema) was 48%.
For `O=C(O)C1=Cc2cc(Cl)c(Oc3ccc(Cl)cc3Br)cc2OC1C(F)(F)F` (stereo not drawn) [Example 188, 7-(2-Bromo-4-chlorophenoxy)-6-chloro-2-(trifluoromethyl)-2H-1-benzopyran-3-carboxylic acid], the pIC50 (COX-2 [1]) was greater than 7.00, the pIC50 (COX-2 [2]) was greater than 7.00 and the inhibition in vivo (Analgesia (Table I)) was 69%. For the same compound, the pIC50 (COX-1) was 5.43, the melting point was 223.6 to 225.6 °C and the inhibition in vivo (carrageenan foot edema) was 57%.
For `C#Cc1ccc2c(c1)C=C(C(=O)O)C(C(F)(F)F)O2` (stereo not drawn) [Example 139, 6-(Ethynyl)-2-(trifluoromethyl)-2H-1-benzopyran-3-carboxylic acid], the inhibition in vivo (Analgesia (Table I)) was 41%, the melting point was 198 to 200 °C and the inhibition in vivo (carrageenan foot edema) was 42%.
`O=C(O)C1=Cc2cc(Cl)ccc2OC1C(F)(F)F` (stereo not drawn) [Example 1, 6-Chloro-2-trifluoromethyl-2H-1-benzopyran-3-carboxylic acid] showed a pIC50 (COX-2 [1]) of 6.52, an inhibition in vivo (Analgesia (Table I)) of 58% and an inhibition in vivo (carrageenan foot edema) of 57%.
`O=C(O)C1=Cc2cc(Cl)cc(Cl)c2SC1C(F)(F)F` (stereo not drawn) [Example 156, 6,8-Dichloro-2-trifluoromethyl-2H-1-benzothiopyran-3-carboxylic acid] showed a pIC50 (COX-2 [1]) greater than 7.00, a pIC50 (COX-2 [2]) greater than 7.00 and an inhibition in vivo (Analgesia (Table I)) of 66%. It also gave a pIC50 (COX-1) of 7.00, a melting point of 217.9 to 220.3 °C and an inhibition in vivo (carrageenan foot edema) of 54%.
With `O=C(O)C1=Cc2cc(Cl)ccc2N[C@@H]1C(F)(F)F` [Example 172, (S)-6-chloro-1,2-dihydro-2-(trifluoromethyl)-3-quinolinecarboxylic acid] the inhibition in vivo (Analgesia (Table I)) was 67% and the inhibition in vivo (carrageenan foot edema) was 57%.
`O=C(O)C1=Cc2cc(C(F)F)ccc2OC1C(F)(F)F` (stereo not drawn) [Example 81, 6-(Difluoromethyl)-2-(trifluoromethyl)-2H-1-benzopyran-3-carboxylic acid] showed a pIC50 (COX-2 [1]) greater than 7.00, a pIC50 (COX-2 [2]) greater than 7.00 and an inhibition in vivo (Analgesia (Table I)) of 44%. The pIC50 (COX-1) was 5.80 and the inhibition in vivo (carrageenan foot edema) was 36%.
With `N#Cc1ccc2c(c1)C=C(C(=O)O)C(C(F)(F)F)O2` (stereo not drawn) [Example 79, 6–Cyano-2-(trifluoromethyl)-2H-1-benzopyran-3-carboxylic acid] the inhibition in vivo (Analgesia (Table I)) was 53%, the melting point was 185.1 to 186.1 °C and the inhibition in vivo (carrageenan foot edema) was 45%.
In the case of `CC(C)(C)c1cc2c(cc1Cl)C=C(C(=O)O)C(C(F)(F)F)O2` (stereo not drawn) [Example 8, 6-Chloro-7-(1,1-dimethylethyl)-2-trifluoromethyl-2H-1-benzopyran-3-carboxylic acid], the inhibition in vivo (Analgesia (Table I)) was 36% and the inhibition in vivo (carrageenan foot edema) was 43%.
